From US4864023A, “Pyrido(3,2,1-IJ)-1,3,4-benzoxadiazine derivatives” (priority 1988, dated 1989)
Converted amounts (≈) assume the structure as drawn. Read-outs that look alike come from different tables or passages of the source.

Key:
[1] = tested on: Bacillus subtilis PCI 219; assay: in vitro antibacterial activity, standard agar dilution method; format: cell-based; settings: PCI219, aerobic, read-out: minimum inhibitory concentration (MIC)
[2] = tested on: Proteus rettgeri ATCC 14505; assay: as above; format: cell-based; settings: Providencia rettgeri, ATCC14505, aerobic, read-out: minimum inhibitory concentration (MIC)
[3] = tested on: Pseudomonas aeruginosa NR 2950; assay: as above; format: cell-based; settings: NR2950, aerobic, read-out: minimum inhibitory concentration (MIC)
[4] = tested on: Fusobacterium varium ATCC 8501; assay: as above; format: cell-based; settings: ATCC8501, anaerobic, read-out: minimum inhibitory concentration (MIC)
[5] = tested on: Peptococcus prevotii ATCC 9321; assay: as above; format: cell-based; settings: Anaerococcus prevotii, ATCC9321, anaerobic, read-out: minimum inhibitory concentration (MIC)
[6] = tested on: Peptostreptococcus anaerobius NR 2743; assay: as above; format: cell-based; settings: NR2743, anaerobic, read-out: minimum inhibitory concentration (MIC)
Escherichia coli ML4707 = assay: in vivo therapeutic efficacy, lethal systemic infection in mice; settings: Escherichia coli, 120 h, E. coli ML4707 i.p. infection, ICR mice, mortality 5 days, read-out: 50% effective dose (ED50)
Description: (§1) The in vivo antibacterial activities of pyrido[3,2,1-ij]-1,3,4-benzoxadiazine derivatives prepared by Example 5, Example 30, Example 65 and Example 66 as mentioned below were tested against lethal infection of Escherichia coli ML4707, Pseudomonas aeruginosa 4au542 and Streptococcus pneumoniae 6-001. ICR mice weighing about 20 g were infected by intraperitoneal injection of a corresponding bacterial suspension. The test compounds were administered orally or subcutaneously at the time of injection. […] The respective 50% effective dose (ED50, mg/kg) which protects 50% of the animals from death caused by infection, is shown in Table 3.

[7] = tested on: Pseudomonas aeruginosa 4au542; assay: as above; settings: po, 120 h, P. aeruginosa 4au542 i.p. infection, ICR mice, p.o. at time of injection, mortality 5 days, read-out: 50% effective dose (ED50)
Description: as §1

[8] = tested on: Streptococcus pneumoniae 6-001; assay: as above; settings: Streptococcus pneumoniae, 6001, po, 120 h; S. pneumoniae 6-001 i.p. infection, ICR mice, p.o. at time of injection, mortality 5 days; read-out: 50% effective dose (ED50)
Description: as §1

[9] = ML4707, po, p.o. at time of injection
[10] = ML4707, sc, s.c. at time of injection

SMILES | MIC [1] | MIC [2] | MIC [3] | MIC [4] | MIC [5] | MIC [6] | ED50 (Escherichia coli ML4707; [9]) | ED50 (Escherichia coli ML4707; [10]) | ED50 [7] | ED50 [8]
CN1CCN(c2c(F)cc3c(=O)c(C(=O)O)cn4c3c2OCN4C)CC1 [Example 5, 9-fluoro-3-methyl-10-(4-methyl-1-piperazinyl)-7-oxo-2,3-dihydro-7H-pyrido[3,2,1-ij]-1,3,4-benzoxadiazine-6-carboxylic acid] | 0.05 µg/mL (≈ 0.138 µM) | 0.2 µg/mL (≈ 0.552 µM) | 0.78 µg/mL (≈ 2.15 µM) | 12.5 µg/mL (≈ 34.5 µM) | 1.56 µg/mL (≈ 4.31 µM) | 0.39 µg/mL (≈ 1.08 µM) | 0.11 mg/kg | 0.06 mg/kg | 13.4 mg/kg | 10.3 mg/kg
CN1COc2c(N3CCC(N)C3)c(F)cc3c(=O)c(C(=O)O)cn1c23 (stereo not shown) [Example 30, 10-(3-amino-1-pyrrolidinyl)-9-fluoro-3-methyl-7-oxo-2,3-dihydro-7H-pyrido[3,2,1-ij]-1,3,4-benzoxadiazine-6-carboxylic acid] | 0.025 µg/mL (≈ 0.0718 µM) | 0.1 µg/mL (≈ 0.287 µM) | 0.2 µg/mL (≈ 0.574 µM) |  | 0.39 µg/mL (≈ 1.12 µM) | 0.013 µg/mL (≈ 0.0373 µM) | 0.62 mg/kg | 0.1 mg/kg | 57 mg/kg | 65.9 mg/kg
